Results taken from ChEMBL document CHEMBL3882725, “Indazole derivatives as JNK inhibitors and compositions and methods related thereto” (2002).
pIC50: −log10 of the molar value.

Each molecule was assayed against Mitogen-activated protein kinase 9 (Homo sapiens, UniProt P45984) (assay: Inhibition of His6-tagged JNK2 (unknown origin) assessed as reduction in c-Jun phosphorylation using GST-c-Jun (1 to 79 residues) and [gamma32P]ATP incubated for 1 hr by scintillation counting assay).
Mitogen-activated protein kinase 9, sequence (P45984 whole entry, the tested form may be a part): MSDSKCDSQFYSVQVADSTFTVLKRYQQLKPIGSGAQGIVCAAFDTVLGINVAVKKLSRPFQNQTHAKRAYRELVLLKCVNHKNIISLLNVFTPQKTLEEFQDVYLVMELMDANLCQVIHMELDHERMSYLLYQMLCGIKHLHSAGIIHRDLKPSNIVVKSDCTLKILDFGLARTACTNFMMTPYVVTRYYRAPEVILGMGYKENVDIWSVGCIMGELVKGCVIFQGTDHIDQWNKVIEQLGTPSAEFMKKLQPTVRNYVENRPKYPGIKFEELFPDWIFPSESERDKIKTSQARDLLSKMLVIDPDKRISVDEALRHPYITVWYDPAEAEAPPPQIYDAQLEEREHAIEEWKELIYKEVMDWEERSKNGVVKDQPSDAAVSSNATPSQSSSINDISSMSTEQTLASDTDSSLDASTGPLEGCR

pIC50	SMILES
5.00 to 6.00	c1cc2[nH]nc(-c3ccc4c(c3)OCCO4)c2cc1-c1n[nH]c(CN2CCCC2)n1
5.00 to 6.00	COc1ccc2cc(-c3n[nH]c4ccc(-c5n[nH]c(CN(C)C)n5)cc34)ccc2c1
5.00 to 6.30	O=C(Nc1ccccc1)c1cccc(-c2n[nH]c3ccc(-c4n[nH]c(CN5CCCC5)n4)cc23)c1
5.00 to 6.00	CN1CCN(CC(=O)Nc2cccc(-c3n[nH]c4ccc(-c5nc[nH]n5)cc34)c2)CC1
5.00 to 6.30	Fc1ccc(-c2n[nH]c3ccc(-c4n[nH]c(CN5CCCC5)n4)cc23)cc1
5.00 to 6.30	COc1ccc2cc(-c3n[nH]c4ccc(-c5n[nH]c(CN6CCCC6)n5)cc34)ccc2c1
5.00 to 6.30	CC(O)Cc1nnc(-c2ccc3[nH]nc(-c4ccc(F)cc4)c3c2)[nH]1 (stereo in doubt; form 1)
5.00 to 6.00	CC(O)Cc1nnc(-c2ccc3[nH]nc(-c4ccc(F)cc4)c3c2)[nH]1 (stereo in doubt; form 2)
5.00 to 6.00	c1cc(OCCN2CCCCC2)cc(-c2n[nH]c3ccc(-c4nc[nH]n4)cc23)c1 [CC-401]
